Test results reported in patent publication US5547971A, “Use of leflunomide for inhibiting interleukin 8” (priority 1993, dated 1996).

Tests used:
[1] = test system: IL-8; test: IL-8 synthesis and liberation induced by lipopolysaccharide in isolated human blood mononuclear cells (IL-8 in the supernatant, sandwich enzyme immuno test); type: cell-based; settings: for activity at 50 µM / activity at 100 µM: Homo sapiens, control without substance set at 100%, 37° C., 1 h, lipopolysaccharide-induced, read-out: IL-8 in the supernatant % +/- standard deviation; for activity at 50 µM: concentration 0.05 mmol/l; for activity at 100 µM: concentration 0.1 mmol/l; for effect on the IL-8 level / effect on the synthesis and liberation of cytokines from human blood cells: in words; for effect on the IL-8 level: experiments in Tab. 1
Description: 10 ml of freshly prepared human citrate blood were carefully underlaid with 15 ml of Lymphoprep^(R) (Molter GmbH, Heidelberg) and then centrifuged at 400 ×g for 40 min. at 20° C. The cell fraction which was visible as a white ring at the phase boundary was removed with the aid of a syringe, diluted 1:1 (v/v) with PM-16 buffer (from Serva Feinbiochemica GmbH & Co. KG, Heidelberg) and then centrifuged, as above, for 10 min. […] Using a cell counter (type IT, from Coulter Diagnostics, Krefeld), the cell suspension, which is composed of about 90% lymphocytes and 10% monocytes, was adjusted to about 5 million cells/mi. Cell viability was monitored before and after the inhibition experiments using the known lactate dehydrogenase method.
The synthesis and liberation of cellular IL-8 was induced by adding a solution of 500 ng of lipopolysaccharide (Salmonella abortus equi, Sigma GmbH, Deisenhofen) in 0.01 ml of dimethyl sulfoxide/water (1:10, v/v) to 0.48 ml of the above-described cell fraction. At the same time, a solution of leflunomide or leflunomide metabolite in 0.01 ml of dimethyl sulfoxide (for the final concentration in each case, see Tab. 1) was added to the cell fraction and the mixture was left at 37° C. for 1h in a commercially available incubator. After cooling down to 0° C., the samples were centrifuged for 1 min. in a bench centrifuge and in each case 0.025 ml aliquots of the supernatant were examined for their […] content using a "sandwich" enzyme immuno test kit (from Biermann GmbH, Bad Nauheim) in accordance with the manufacturer's instructions. The control values were determined without the addition of leflunomide or its metabolites and set at 100%.

[2] = Metabolism of leflunomide in the mononuclear cell test sample (HPLC); type: in vitro ADME, human; settings: blood mononuclear cells; under the conditions employed; human mononuclear cell fraction; read-out: half life of metabolism of leflunomide to its metabolites (converted)
[3] = test system: mononuclear cells; test: as above; type: in vitro ADME, human; settings: in words; under the experimental conditions employed

| Structure (SMILES) | activity at 50 µM [1] [%] | activity at 100 µM [1] [%] | effect on the IL-8 level [1] | effect on the synthesis and liberation of cytokines from human blood cells [1] | half-life [2] [h] | metabolism of leflunomide [3] |
| --- | --- | --- | --- | --- | --- | --- |
| C/C(O)=C(\C#N)C(=O)Nc1ccc(C(F)(F)F)cc1 [Leflunomide metabolite, N-(4-trifluoromethylphenyl)-2-cyano-3-hydroxycrotonamide] | 97 | 99 | practically no effect on the IL-8 level | does not exhibit this advantageous effect | – | – |
| Cc1oncc1C(=O)Nc1ccc(C(F)(F)F)cc1 [Leflunomide, N-(4-trifluoromethylphenyl)-5-methylisoxazole-4-carboxamide] | 83 | 61 ± 11 | IL-8 level is clearly lowered | strong inhibitory effect | ~10 | no appreciable metabolism |
